From PubChem BioAssay (NCI)
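Each compound was tested at five concentrations against cells in 96-well plates for 48 hours. GI50 = concentration required for 50% inhibition of growth. At the TGI there is no net growth.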

Tests used:
Test in all cases: inhibition of tumour cell growth, NCI panel, 48 h
BT-549 breast = test system: BT-549 breast
SNB-75 CNS = test system: SNB-75 CNS
CCRF-CEM leukemia = test system: CCRF-CEM leukemia
SK-MEL-2 melanoma = test system: SK-MEL-2 melanoma
SF-268 CNS = test system: SF-268 CNS
UACC-257 melanoma = test system: UACC-257 melanoma
LOX IMVI melanoma = test system: LOX IMVI melanoma
SN12C renal = test system: SN12C renal
A498 renal = test system: A498 renal
HL-60(TB) leukemia = test system: HL-60(TB) leukemia
EKVX NSCLC = test system: EKVX NSCLC
786-0 renal = test system: 786-0 renal
K-562 leukemia = test system: K-562 leukemia
PC-3 prostate = test system: PC-3 prostate
RXF 393 renal = test system: RXF 393 renal
MALME-3M melanoma = test system: MALME-3M melanoma
MOLT-4 leukemia = test system: MOLT-4 leukemia
COLO 205 colon = test system: COLO 205 colon
HCT-15 colon = test system: HCT-15 colon
M14 melanoma = test system: M14 melanoma
SK-MEL-28 melanoma = test system: SK-MEL-28 melanoma
U251 CNS = test system: U251 CNS
OVCAR-3 ovarian = test system: OVCAR-3 ovarian
SR leukemia = test system: SR leukemia
SF-295 CNS = test system: SF-295 CNS
UACC-62 melanoma = test system: UACC-62 melanoma
HCC-2998 colon = test system: HCC-2998 colon
OVCAR-4 ovarian = test system: OVCAR-4 ovarian
MDA-MB-435 = test system: MDA-MB-435
OVCAR-5 ovarian = test system: OVCAR-5 ovarian
RPMI-8226 leukemia = test system: RPMI-8226 leukemia
OVCAR-8 ovarian = test system: OVCAR-8 ovarian
CAKI-1 renal = test system: CAKI-1 renal
A549 NSCLC = test system: A549 NSCLC
ACHN renal = test system: ACHN renal
HS 578T breast = test system: HS 578T breast
DU-145 prostate = test system: DU-145 prostate
MDA-MB-231 breast = test system: MDA-MB-231 breast
SK-MEL-5 melanoma = test system: SK-MEL-5 melanoma
HT29 colon = test system: HT29 colon
NCI-H226 lung = test system: NCI-H226 lung
UO-31 renal = test system: UO-31 renal
MCF7 breast = test system: MCF7 breast
IGROV1 ovarian = test system: IGROV1 ovarian
HOP-92 NSCLC = test system: HOP-92 NSCLC
SW-620 colon = test system: SW-620 colon
KM12 colon = test system: KM12 colon
NCI-H460 lung = test system: NCI-H460 lung
SK-OV-3 ovarian = test system: SK-OV-3 ovarian
HCT-116 colon = test system: HCT-116 colon
NCI-H522 lung = test system: NCI-H522 lung
SF-539 CNS = test system: SF-539 CNS
T-47D breast = test system: T-47D breast
HOP-62 NSCLC = test system: HOP-62 NSCLC
NCI/ADR-RES ovarian = test system: NCI/ADR-RES ovarian
NCI-H23 lung = test system: NCI-H23 lung

SMILES: CNCCNc1nc2ccccc2c2c(=O)c3cc(F)ccc3sc12
- GI50 (BT-549 breast): 3.59 µM
- TGI (BT-549 breast): 14.9 µM
- GI50 (SNB-75 CNS): 1580 nM
- TGI (SNB-75 CNS): 5.6 µM
- GI50 (CCRF-CEM leukemia): 1680 nM
- TGI (CCRF-CEM leukemia): 3.36 µM
- GI50 (SK-MEL-2 melanoma): 1760 nM
- TGI (SK-MEL-2 melanoma): 3.45 µM
- GI50 (SF-268 CNS): 1690 nM
- TGI (SF-268 CNS): 4.17 µM
- GI50 (UACC-257 melanoma): 1730 nM
- TGI (UACC-257 melanoma): 3.25 µM
- GI50 (LOX IMVI melanoma): 1570 nM
- TGI (LOX IMVI melanoma): 2980 nM
- GI50 (SN12C renal): 1610 nM
- TGI (SN12C renal): 3.29 µM
- GI50 (A498 renal): 2050 nM
- TGI (A498 renal): 6.96 µM
- GI50 (HL-60(TB) leukemia): 1890 nM
- TGI (HL-60(TB) leukemia): 3.66 µM
- GI50 (EKVX NSCLC): 1740 nM
- TGI (EKVX NSCLC): 3.57 µM
- GI50 (786-0 renal): 1590 nM
- TGI (786-0 renal): 3.09 µM
- GI50 (K-562 leukemia): 1640 nM
- TGI (K-562 leukemia): 4.35 µM
- GI50 (PC-3 prostate): 1520 nM
- TGI (PC-3 prostate): 3.3 µM
- GI50 (RXF 393 renal): 1600 nM
- TGI (RXF 393 renal): 3.1 µM
- GI50 (MALME-3M melanoma): 1670 nM
- TGI (MALME-3M melanoma): 3.1 µM
- GI50 (MOLT-4 leukemia): 1720 nM
- TGI (MOLT-4 leukemia): 3.5 µM
- GI50 (COLO 205 colon): 1670 nM
- TGI (COLO 205 colon): 3.36 µM
- GI50 (HCT-15 colon): 1650 nM
- TGI (HCT-15 colon): 3.26 µM
- GI50 (M14 melanoma): 1640 nM
- TGI (M14 melanoma): 3.07 µM
- GI50 (SK-MEL-28 melanoma): 1850 nM
- TGI (SK-MEL-28 melanoma): 3.38 µM
- GI50 (U251 CNS): 1630 nM
- TGI (U251 CNS): 3.18 µM
- GI50 (OVCAR-3 ovarian): 1700 nM
- TGI (OVCAR-3 ovarian): 3.25 µM
- GI50 (SR leukemia): 1830 nM
- TGI (SR leukemia): 4.31 µM
- GI50 (SF-295 CNS): 1820 nM
- TGI (SF-295 CNS): 3.4 µM
- GI50 (UACC-62 melanoma): 1730 nM
- TGI (UACC-62 melanoma): 3.18 µM
- GI50 (HCC-2998 colon): 1700 nM
- TGI (HCC-2998 colon): 3.45 µM
- GI50 (OVCAR-4 ovarian): 1800 nM
- TGI (OVCAR-4 ovarian): 3.66 µM
- GI50 (MDA-MB-435): 1710 nM
- TGI (MDA-MB-435): 3.22 µM
- GI50 (OVCAR-5 ovarian): 1650 nM
- TGI (OVCAR-5 ovarian): 3.21 µM
- GI50 (RPMI-8226 leukemia): 1910 nM
- TGI (RPMI-8226 leukemia): 4.03 µM
- GI50 (OVCAR-8 ovarian): 1850 nM
- TGI (OVCAR-8 ovarian): 3.84 µM
- GI50 (CAKI-1 renal): 1380 nM
- TGI (CAKI-1 renal): 2770 nM
- GI50 (A549 NSCLC): 1650 nM
- TGI (A549 NSCLC): 3.29 µM
- GI50 (ACHN renal): 1560 nM
- TGI (ACHN renal): 2910 nM
- GI50 (HS 578T breast): 2000 nM
- TGI (HS 578T breast): 4.79 µM
- GI50 (DU-145 prostate): 1710 nM
- TGI (DU-145 prostate): 3.15 µM
- GI50 (MDA-MB-231 breast): 1610 nM
- TGI (MDA-MB-231 breast): 3.18 µM
- GI50 (SK-MEL-5 melanoma): 1820 nM
- TGI (SK-MEL-5 melanoma): 3.34 µM
- GI50 (HT29 colon): 1590 nM
- TGI (HT29 colon): 3.2 µM
- GI50 (NCI-H226 lung): 1800 nM
- TGI (NCI-H226 lung): 3.76 µM
- GI50 (UO-31 renal): 1390 nM
- TGI (UO-31 renal): 2810 nM
- GI50 (MCF7 breast): 1670 nM
- TGI (MCF7 breast): 3.31 µM
- GI50 (IGROV1 ovarian): 1750 nM
- TGI (IGROV1 ovarian): 3.34 µM
- GI50 (HOP-92 NSCLC): 1730 nM
- TGI (HOP-92 NSCLC): 7.42 µM
- GI50 (SW-620 colon): 1660 nM
- TGI (SW-620 colon): 3.24 µM
- GI50 (KM12 colon): 1740 nM
- TGI (KM12 colon): 3.25 µM
- GI50 (NCI-H460 lung): 1780 nM
- TGI (NCI-H460 lung): 3.32 µM
- GI50 (SK-OV-3 ovarian): 2130 nM
- TGI (SK-OV-3 ovarian): 7.58 µM
- GI50 (HCT-116 colon): 1490 nM
- TGI (HCT-116 colon): 2810 nM
- GI50 (NCI-H522 lung): 1660 nM
- TGI (NCI-H522 lung): 3.42 µM
- GI50 (SF-539 CNS): 1710 nM
- TGI (SF-539 CNS): 3.13 µM
- GI50 (T-47D breast): 1800 nM
- TGI (T-47D breast): 4.12 µM
- GI50 (HOP-62 NSCLC): 1480 nM
- TGI (HOP-62 NSCLC): 3.21 µM
- GI50 (NCI/ADR-RES ovarian): 1820 nM
- TGI (NCI/ADR-RES ovarian): 3.83 µM
- GI50 (NCI-H23 lung): 1800 nM
- TGI (NCI-H23 lung): 3.65 µM
